From patent US20030124590A1, “Carbohydrate response element binding protein and uses thereof” (priority 2001, published 2003)
One block for each molecule: values may come before it.

Legend:
[1] = system: GFP-fused ChREBP; assay: Subcellular localization of GFP-fused ChREBP in primary hepatocytes (confocal microscopy); type: cell-based, rat; conditions: within 10 min after addition of db-cAMP into 27.5 mM glucose medium, preliminary, n=3
Description: Determination of Subcellular Localization of ChREBP—Subcellular localization of GFP-fused WT-ChREBP or its mutants was determined using a confocal laser scanning microscope (Bio Rad, Hercules, Calif.). In order to quantitate nuclear localization of ChREBP, for each condition, 100 transfected hepatocytes from 5 independent experiments were scored in a blinded fashion as to whether the GFP-fused ChREBP was predominantly nuclear or cytoplasmic. The identity of the nucleus was verified by comparative phase-contrast microscopy. B. Results
Rat primary cultured hepatocytes were transfected with a plasmid comprising a gene encoding the GFP-fused wild type-ChREBP or NLS domain deletion mutants. […] The values are expressed as mean±SE. *P<0.05 compared to that of wild type-ChREBP.

[2] = system: ChREBP; assay: Intraperitoneal db-cAMP in rats, gel shift of liver nuclear extracts; type: in vivo, rat; conditions: rats fed high carbohydrate diet, db-cAMP 1 mmol/kg intraperitoneally
Description: Treatment of Rats with Dibutyryl (db)-cAMP and Nuclear Extract Preparation—Male Sprague-Dawley rats weighting 250 g were used in all experiments. After 48 h starvation, the rats were fed a high carbohydrate diet and db-cAMP (1 mmol/kg) was injected intraperitoneally. The rats were sacrificed 10 min and 30 min after injection and nuclear extracts were prepared immediately from rat liver as described in Example 1. Gel shifts were performed as described in Example 2.

[3] = system: L-PK gene; assay: L-PK promoter luciferase reporter in ChREBP-transfected primary hepatocytes with kinase/phosphatase inhibitors or db-cAMP; conditions: treatment with db-cAMP, low and high glucose
Description: Primary hepatocytes were prepared from male Sprague-Dawley rats using the collagenase (Life Technologies, Inc.) perfusion method (Berry and Friend (1969) J Cell Bio […], 506-520) and plated in collagen-coated six-well tissue culture plates (Primaria Falcon, Franklin Lakes, N.J.) at a density of 1×10^6 cells/well in glucose-free Dulbecco's modified Eagle's medium (Life Technologies, Inc.) supplemented with 100 nM dexamethasone, 10 nM insulin, 100 units/ml penicillin, 100 μg/ml streptomycin and 10% dialyzed fetal bovine serum (Life Technologies, Inc.). Following attachment, synthetic liposomes were used to transfect hepatocytes with 0.5 μg of the luciferase reporter plasmid and 0.1 μg of the internal control plasmid pRL-TK. After 14 h the media was replaced by Dulbecco's modified Eagle medium supplemented with 100 nM dexamethasone, 10 nM insulin, 10% Fetal Bovine Serum and either 10 mM lactate, 5.5 mM glucose or 27.5 mM glucose. The cells were incubated for an additional 12 h prior to determination of luciferase activity using the Dual-Luciferase Reporter Assay System (Promega).
Protein Kinase and Protein Phosphatase Inhibitors—Prior to exchange to 5.5 or 27.5 mM glucose medium, transfected primary culture hepatocytes were treated for 1 h with 10 μM H-89, 500 nM cantharidic acid (Calbiochem), 5 μM KN-62 (Calbiochem), 30 μM PD98059 (Calbiochem), 50 μM Genistein, or dimethylsulfoxide vehicle.
Rat primary cultured hepatocytes were transfected a plasmid comprising a gene encoding the wild type (WT)-ChREBP. H-89, cantharidic acid, or dimethylsulfoxide vehicle was added, and the cells were incubated in 5.5 mM (□) or 27.5 mM (▪) glucose for 12 h.
Rat primary cultured hepatocytes were transfected with wild type (WT)-ChREBP, S626A, S626D, T666A, or T666D. After transfection, the cells were incubated in 5.5 mM (□) or 27.5 mM (▪) glucose for 12 h. […] Rat primary cultured hepatocytes were transfected with wild type (WT)-ChREBP, S196A+S626A, or S196A+T666A. After transfection, cells were incubated under 5.5 mM (□) or 27.5 mM (▪) glucose, and cAMP was added both low and high glucose.

[4] = system: cultured hepatocytes; assay: AMP, ADP, ATP assays in cultured hepatocytes; type: cell-based, rat; conditions: hepatocytes 12 h with 150 µM fatty acid, mean±S.E., n=4
Description: Hepatocytes were scraped and collected directly into 0.5 ml of ice-cold 6% (v/v) HClO4. The concentrations of ADP and ATP were determined enzymatically in the acid-extract with methods described (Kawaguchi, T., Veech, R. L., and Uyeda, K. (2001) J. Biol. Chem. 276, 28554-28561), and the cytosolic AMP was calculated by the method of Veech et al. (Veech, R. L., Lawson, J. W., Cornell, N. W., and Krebs, H. A. (1979) J. Biol. Chem. 254, 6538-6547).
Values are expressed as mean±S.E. (n=4).

[5] = system: AMPK; assay: AMPK activity in hepatocytes (SAMS peptide); type: cell-based, rat; conditions: fatty acid added to high glucose medium
Description: The extract was centrifuged at 15,800·g for 15 min, and the resulting supernatant solution was transferred to a fresh tube, adjusted to 10% with polyethylene glycol 8000 ([…], France), and incubated on ice for 20 min. Following centrifugation at 15,800·g for 15 min, the pellet was suspended in 100 μl buffer A. […] A. (2000) Proc. Natl. Acad. Sci. USA. 97, 4023-4028).

[6] = system: ChREBP; assay: Gel shift of purified ChREBP after incubation with PKA/PP2A in vitro; type: biochemical, rat; conditions: catalytic subunit of PP2A 0.025 U/μl added
Description: Gel shift assay. Gel mobility shift assays were performed as described by Liu et al. (Liu et al. (1993) J Biol Chem 268, 12787-12795). Double-stranded oligonucleotides (Table 1) were prepared by mixing equal amounts of the complementary single-stranded DNAs in 50 mM NaCl, heating to 70° C. for 15 min, and cooling to room temperature. The annealed oligonucleotides were labeled with ^32P in the presence of [γ^32P]-ATP (Amersham Pharmacia) and T4 polynucleotide kinase (New England Biolabs). Binding reactions were carried out in reaction mixture containing 20 mM Hepes (pH 7.9), 50 mM KCl, 5 mM DTT, 0.2 mM EDTA, 0.5 mM PMSF, 10% glycerol, 1 μg/μl of poly(dI-dC) (Amersham Pharmacia) and 1 μg/μl of nuclear extract. The reaction mixture was incubated at room temperature for 30 min and DNA-protein complexes were separated by electrophoresis in a 4.5% nondenaturing polyacrylamide gel.
Purified ChREBP was incubated with PKA and/or PP2A in vitro and measured by gel-shift analysis with the [^32P]-radiolabeled WT oligonucleotide. Purified ChREBP was incubated for 20 min with ATP (1 mM), PKA (0.1 U/μl), 0.2 U/μl PKI, 0.025 U/μl PP2A and the PP2A inhibitor, okadaic acid (10 nM).

[7] = system: C-terminus ChREBP (bHLH/ZIP domain, Thr666); assay: Phosphorylation/dephosphorylation and DNA binding of recombinant C-terminus ChREBP; type: biochemical, mouse; conditions: catalytic subunit of PP2A 200 units, 30° C
Description: Recombinant Protein Production—Recombinant protein of mouse ChREBP was expressed in Escherichia coli by inserting the C-terminus of the ChREBP construct, encoding the amino acids 651-864 of ChREBP+His6 tag, into the BamHI and HindIII sites of the T7-based expression vector pMal-c2 (New England Bio Lab, Beverly, Mass.) to produce an N-terminal fusion with maltose-binding protein. Expressed protein was purified according to manufacturer's instruction.
Phosphorylation and Dephosphorylation of ChREBP—The reaction mixture contained, in a final volume of 0.2 ml, 50 mM Tris/Cl pH 7.5, 0.2 μM [γ-^32P]ATP (3000 Ci/mmol), 5 mM MgCl2, 0.2 mM EDTA, 2 mM dithiothreitol, and 5 mM potassium phosphate. […] At given time intervals, aliquots were removed and DNA-binding activity was determined by gel shift assay as described in Example 2. [^32P]phosphate-bound ChREBP was also determined as previously described (Kitajima and Uyeda (1983) J. Biol Chem 258, 7352-7357).
FIG. 13A is a graph showing that phosphate incorporation mediated by PKA correlates directly with DNA binding. […] At given time intervals, [^32P]phosphate incorporation (□) and DNA-binding activity (▪) were determined. Values are expressed as mean±SE. […] At given time intervals, remaining phosphorylated C-terminus ChREBP (□) and DNA-binding activity (▪) were determined. Values are expressed as mean±SE.

[8] = target: T1, ChREBP (Carbohydrate Response Element Binding Protein) from rat liver (UniProt Q8VIP2)
T1 sequence: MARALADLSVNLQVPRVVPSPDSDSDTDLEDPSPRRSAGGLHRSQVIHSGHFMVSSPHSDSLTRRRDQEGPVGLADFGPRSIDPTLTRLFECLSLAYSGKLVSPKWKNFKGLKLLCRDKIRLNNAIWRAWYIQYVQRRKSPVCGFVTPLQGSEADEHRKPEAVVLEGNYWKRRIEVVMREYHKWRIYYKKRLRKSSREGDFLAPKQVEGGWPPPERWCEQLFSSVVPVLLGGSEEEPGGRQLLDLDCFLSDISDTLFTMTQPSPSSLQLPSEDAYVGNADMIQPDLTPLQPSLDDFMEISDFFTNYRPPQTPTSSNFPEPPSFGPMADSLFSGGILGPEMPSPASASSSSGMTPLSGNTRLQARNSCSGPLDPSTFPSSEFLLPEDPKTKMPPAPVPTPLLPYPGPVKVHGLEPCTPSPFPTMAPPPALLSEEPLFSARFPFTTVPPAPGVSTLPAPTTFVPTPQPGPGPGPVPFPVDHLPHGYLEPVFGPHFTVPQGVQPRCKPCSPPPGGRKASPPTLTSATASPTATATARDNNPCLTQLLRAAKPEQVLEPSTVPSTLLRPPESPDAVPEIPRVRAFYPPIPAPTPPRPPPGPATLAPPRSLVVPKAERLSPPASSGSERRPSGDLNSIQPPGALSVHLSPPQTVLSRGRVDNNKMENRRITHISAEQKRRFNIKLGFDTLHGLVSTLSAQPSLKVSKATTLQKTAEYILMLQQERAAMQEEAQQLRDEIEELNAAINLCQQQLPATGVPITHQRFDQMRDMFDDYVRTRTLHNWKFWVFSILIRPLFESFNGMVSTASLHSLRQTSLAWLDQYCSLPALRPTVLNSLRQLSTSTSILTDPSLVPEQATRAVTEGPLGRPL

[9] = target: T2, ChREBP, purified from rat liver (Rattus norvegicus, UniProt Q8VIP2 Q8VIP2:1-865); assay: EMSA; purified ChREBP; conditions: label: 32P
T2 sequence: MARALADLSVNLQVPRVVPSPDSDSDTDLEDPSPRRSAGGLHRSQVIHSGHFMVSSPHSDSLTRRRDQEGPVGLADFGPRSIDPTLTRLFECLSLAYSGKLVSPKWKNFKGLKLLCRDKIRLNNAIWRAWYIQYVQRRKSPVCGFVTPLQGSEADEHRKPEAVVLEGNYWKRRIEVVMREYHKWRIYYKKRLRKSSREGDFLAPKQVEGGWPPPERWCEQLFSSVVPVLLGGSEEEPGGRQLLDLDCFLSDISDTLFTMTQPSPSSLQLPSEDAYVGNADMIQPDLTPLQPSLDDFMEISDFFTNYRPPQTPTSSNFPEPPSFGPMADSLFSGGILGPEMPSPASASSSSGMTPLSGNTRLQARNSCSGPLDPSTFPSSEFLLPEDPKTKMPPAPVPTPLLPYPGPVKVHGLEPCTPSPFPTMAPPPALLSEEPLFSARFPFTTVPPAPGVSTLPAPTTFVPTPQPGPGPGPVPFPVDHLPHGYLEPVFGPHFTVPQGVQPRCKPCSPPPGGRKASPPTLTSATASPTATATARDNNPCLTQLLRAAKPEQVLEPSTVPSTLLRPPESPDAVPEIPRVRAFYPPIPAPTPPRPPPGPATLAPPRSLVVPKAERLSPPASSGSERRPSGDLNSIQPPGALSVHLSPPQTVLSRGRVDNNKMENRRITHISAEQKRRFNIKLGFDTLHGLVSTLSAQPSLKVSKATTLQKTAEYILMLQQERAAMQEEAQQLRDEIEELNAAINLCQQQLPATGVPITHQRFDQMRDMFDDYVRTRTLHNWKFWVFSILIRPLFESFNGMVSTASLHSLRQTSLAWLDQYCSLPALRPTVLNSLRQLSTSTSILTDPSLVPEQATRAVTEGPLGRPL
Description: Purified ChREBP was incubated with PKA and/or PP2A in vitro and measured by gel-shift analysis with the [³²P]-radiolabeled WT oligonucleotide. Purified ChREBP was incubated for 20 min with ATP (1 mM), PKA (0.1 U/μl), 0.2 U/μl PKI, 0.025 U/μl PP2A and the PP2A inhibitor, okadaic acid (10 nM).

[10] = target: T2, ChREBP, purified from rat liver; assay: pulldown; DNA-affinity column; eluted at 0.8 M KCl

transcriptional activity of S196A+T666A ChREBP double mutant [3]: not inhibited
Molecule: CCCC(=O)Nc1ncnc2c1ncn2[C@@H]1O[C@@H]2COP(=O)(O)O[C@H]2[C@H]1OC(=O)CCC [db-cAMP, Dibutyryl (db)-cAMP]
export of GFP-ChREBP from nuclei to cytoplasm [1]: not exported
time after injection to inactivation of ChREBP DNA-binding activity in liver nuclear extracts [2]: ≤ 10 min

Molecule: CCCCCCCC(=O)O [octanoate]
AMP [4]: 942 ± 106 nmol/g cells
AMP/ATP ratio [4]: 0.30 ± 0.03
increase of AMPK activity compared to absence of fatty acid [5]: about two-fold

DNA-binding activity of inactivated ChREBP [6]: restored
DNA-binding activity of 32P-phosphorylated bHLH/ZIP domain on incubation with PP2A [7]: complete recovering of the activity
Molecule: PP2A: catalytic subunit of protein phosphatase 2A

Molecule: catalytic subunit of cAMP-dependent protein kinase (PKA)
radiolabeling of ChREBP with γ-[32P]-ATP (SDS-PAGE) [8]: leads to radiolabeling of ChREBP

B1: LPK ChRE WT (dsDNA)
DNA 1: GGGCGCACGGGGCACTCCCGTGGTTCC
DNA 2: GGAACCACGGGAGTGCCCCGTGCGCCC
binding result [9]: binds

B2: DNA-affinity column ChRE (dsDNA)
DNA 1: CATGGGCGCACGGGGCACTCCCGTGGTTCC
DNA 2: GGAACCACGGGAGTGCCCCGTGCGCCCATG
binding result [10]: binds
